This is an account of results in patent US11554123B2, “Compositions and methods for reactivating latent HIV-1 infections” (Saint Joseph's University, priority 2017, dated 2023).

Values joined by “and” are separate entries in the source; they are usually repeats but may differ in a detail not shown here. Equal values may be shown once. “Also recorded” adds a separate entry of the source.

Holding throughout (format): cell-based
One assay addresses T1, HIV-1 Tat (Human immunodeficiency virus type 1 group M subtype B, UniProt P04608).
T1 construct: expressed in transfected cells; host or cells: TZMbl cells
The settings on record: TZMbl cells transfected with Tat plasmid, 24 h treatment, FIG. 3E.

For another assay, the system named is IL-17 promoter. The experiment in a line: IL-17 promoter luciferase reporter assay in 293T cells. As to conditions: all three conditions: alone, with SAHA, with RUNX1 overexpression.
The test system of assay [1] is acetylated histone 3 at lysine 9 (H3K9). The experiment in a line: NUCLEO-M imaging of acetylated H3K9 in isolated nuclei. As to conditions: Ro5-3335 and SAHA, FIG. 3A. On the procedure: Transcriptionally competent nuclei were isolated from TZM-bl cells by chemical lysis and stored following manufacturer's recommendations (Nuclei Isolation Kit: Nuclei EZ Prep, Sigma-Aldrich, Nuc-101). Nuclei were stained for 1 hour on ice in 5% FBS/PBS solution containing primary antibodies. Nuclei were washed twice in 5% FBS/PBS and stained for 1 hour on ice with appropriate secondary antibodies conjugated with fluorescent dyes. Nuclei were finally washed twice in 5% FBS/PBS and resuspended in the storage buffer provided by the kit (Nuclei Isolation Kit: Nuclei EZ Prep, Sigma-Aldrich, Nuc-101).
Isolated nuclei and TZM-bl cells seeded on a chambered coverglass (NUNC® LAB-TEK® Chambered Coverglass, Thermo Fisher) were imaged with a Zeiss AXIOVERT® microscope with a Zeiss alpha PLAN-FLUAR® 100×, 1.45 N.A., oil objective and a spinning disk confocal scan head (Yokogawa CSU-X1). A 488 nm laser source with 488-25 nm, 617-73 nm and 692-40 nm emission filters were used for the illumination of Alexa Fluor® 488 dye (Thermo Fisher) or SYTO® RNA SELECT® Green Fluorescent cell Stain (Thermo Fisher), and PerCP-Cy5.5 (BD Biosciences) respectively. A 561 nm laser source with 568-25 nm emission filters was used for illumination of ALEXA FLUOR® 555 dye (Thermo Fisher). Digital images were captured sequentially by a high-speed EM-CCD camera with 100 ms exposure time (Photometrics EVOLVE® 512). […]

The subject of assay [2] is latent HIV-1 in JLat10.6 cell line model of T-cell latency. As to conditions: Ro5-3335 by itself, without SAHA.
The test system of assay [3] is H3K9ac at the integrated HIV-1 long terminal repeat (LTR). The experiment in a line: ChIP for H3K9ac at integrated HIV-1 LTR in TZMbl cells. The settings on record: 50 μM Ro5-3335, 10 μM Alprazolam or 10 μM Clonazepam with 5 μM SAHA, 48 h. On the procedure:
(§1) TZMbl cells were cultured with benzodiazepines for 48 hours before chromatin immunoprecipitation analysis. Following treatment, cells were processed for chromatin immunoprecipitation using the Pierce Agarose ChIP Kit (Fisher Scientific) using commercially available antibodies against histone H3 lysine 9 acetylation, STATS, and CBP/P300. Degree of occupancy at the integrated HIV-1 LTR was determined by qPCR using HIV-1 LTR specific primers run on a BioRad CFX384 qPCR machine using Sybr Green methodology.
In order to test the changes driven by these compounds, chromatin immunoprecipitation (ChIP) assays were performed to examine the presence of various proteins and modifications at the integrated HIV-1 long terminal repeat (LTR). TZMbl cells were treated for 48 hours with 50 μM Ro5-3335, 10 μM Alprazolam and 10 μM Clonazepam with or without 5 μM SAHA Acetylation of histone 3 at lysine 9 (H3K9ac) was first examined (FIG. 3B). […] None of the benzodiazepines were able to alter H3K9ac when used alone.

The next assay has as its system CBP/P300. Kind of assay: ChIP for CBP/P300 at integrated HIV-1 LTR in TZMbl cells. The settings on record: addition of 50 μM Ro5-3335 or 10 μM Alprazolam, 48 h, FIG. 3D. On the procedure: as §1
Therefore, ChIP was performed for STATS to determine if benzodiazepine treatment might increase the recruitment of STATS above SAHA treatment (FIG. 3C). All three benzodiazepines were capable of driving recruitment of STATS to the promoter, and further recruitment was seen when used in combination with SAHA. STATS is capable of recruiting the histone acetyl transferase CBP/P300 that acetylates histone 3 at lysine 27, a residue that is not affected by SAHA. […] Addition of both Ro5-3335 and Alprazolam induced recruitment of CBP/P300 to the HIV-1 LTR (by 3 and 7 fold respectively).

The test system of another assay is HIV-1 Gag mRNA. Kind of assay: HIV-1 Gag mRNA (RTqPCR) in ex vivo treated PBMCs from HIV-1 patients. The settings on record: 50 μM Ro5-3335 alone, 24 h, two patients, versus DMSO control. On the procedure:
(§2) To evaluate the ability of Alprazolam to reactivate latent cells from patients we obtained PBMCs from two HIV-1 patients who had been suppressed on therapy for greater than 6 months. 10×10^6 PBMCs were divided between three conditions: DMSO control, 50 μM Ro5-3335 and 10 μm Alprazolam. PBMCs were cultured in RPMI with 10% FBS and the given drugs for twenty-four hours. RNA was extracted from the cells and used for RTqPCR to detect HIV-1 Gag mRNA. RNA was extracted using Trizol reagent (Invitrogen) following manufacturer's protocol. Following reverse transcription, the samples were diluted 1:50, and 2.5 microliters were used for quantitative PCR in a BioRad CFX384 qPCR machine. All mRNA analyses were normalized to GAPDH. Nucleic acid amplification was tracked by SYBR Green method.
In order to evaluate the ability of Alprazolam to reactivate latent cells from patients, PBMCs were obtained from two HIV-1 patients who had been suppressed on therapy for greater than 6 months. 10×10^6 PBMCs were divided between three conditions: DMSO control, 50 μM Ro5-3335 and 10 μm Alprazolam. PBMCs were cultured in RPMI with 10% FBS and the given drugs for twenty-four hours. RNA was extracted from the cells and used for RTqPCR to detected HIV-1 Gag mRNA (FIG. 6). […] Treatment with Alprazolam produced detectable reactivation of HIV-1 transcripts.

The next assay has as its system RUNX1 responsive genes. Kind of assay: RUNX responsive gene expression (qPCR) in PBMCs from HIV-1 patients. The settings on record: PBMCs of three HIV-1 patients, 48 h. On the procedure: as §2
Next, expression of several RUNX responsive genes in PBMCs in response to Ro5-3335 and Alprazolam was examined. Samples from three HIV-1 patients were treated with Alprazolam or Ro5-3335 for 48 hours. RNA was harvested using Trizol and cDNA was synthesized using RT reaction. qPCR was performed using primers for seven known RUNX1 responsive genes: APOBEC3C, APOBEC3G, Tbet, RUNX1 d, IL-2, IL7R and STAH (FIG. 5).
A general note: Real-time PCR tracks product formation cycle by cycle.

T1 sequence (P04608 whole entry): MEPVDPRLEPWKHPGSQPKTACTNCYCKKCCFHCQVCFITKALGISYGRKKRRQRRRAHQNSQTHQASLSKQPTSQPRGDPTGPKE

As to `O=C1CN=C(c2ccc[nH]2)c2cc(Cl)ccc2N1` [Ro5-3335], at HIV-1 Tat, the “luciferase expression driven by Tat (in words)” value is given as “significantly suppressed luciferase expression; also recorded: significant suppression of Tat”. Also, the “IL-17 promoter activity (in words)” value in the assay with IL-17 promoter was “inhibited IL-17 promoter in a dose dependent fashion”. Also, the “acetylated H3K9 in the nuclei (in words)” value in assay [1] was “further increased the acetylation; also recorded: increase in acetylated histone 3 at lysine 9”. Besides, the “activation of latent virus (in words)” value in assay [2] is reported as “did not activate the virus by itself”. Moreover, in assay [3], the “H3K9ac at the HIV-1 LTR versus SAHA alone (in words)” value is “potentiation was not seen”. In addition, in the assay on CBP/P300, the “recruitment of CBP/P300 to the HIV-1 LTR” value is reported as 3 fold. Besides, in the assay with HIV-1 Gag mRNA, the “increase in HIV-1 transcripts (Gag mRNA)” value was 1.5 fold and 1.2 fold. Further, the “expression of seven selected RUNX responsive genes (in words)” value in the assay on RUNX1 responsive genes is given as “significantly altered the expression of five of the selected RUNX responsive genes”.
